# From BindingDB's records for doi:10.1038/sj.npp.1300203 (Case Western Reserve University, 2003)
# Key:
# [1] = target: T1, Prostaglandin E2 receptor EP3 subtype (Homo sapiens, UniProt P43115)
# T1 sequence (P43115 whole entry): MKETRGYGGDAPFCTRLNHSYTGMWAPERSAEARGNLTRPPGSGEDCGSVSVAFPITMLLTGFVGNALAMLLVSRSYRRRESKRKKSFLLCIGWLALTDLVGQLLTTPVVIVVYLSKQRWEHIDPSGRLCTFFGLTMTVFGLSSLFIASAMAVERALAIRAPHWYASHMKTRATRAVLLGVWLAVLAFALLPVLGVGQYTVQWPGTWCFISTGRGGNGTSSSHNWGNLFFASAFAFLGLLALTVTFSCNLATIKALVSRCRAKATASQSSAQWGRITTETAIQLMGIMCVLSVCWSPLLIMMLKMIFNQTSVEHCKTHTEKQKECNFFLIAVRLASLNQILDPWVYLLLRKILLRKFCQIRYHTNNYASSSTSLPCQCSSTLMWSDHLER
# [2] = target: Protein kinase C gamma type (Homo sapiens, UniProt P05129)
# [3] = target: Gamma-aminobutyric acid type B receptor subunit 1 (UniProt Q9Z0U4)
# Histamine H4 receptor = Histamine H4 receptor (Homo sapiens, UniProt Q9H3N8)
# Histamine H3 receptor = Histamine H3 receptor (Cavia porcellus, UniProt Q9JI35)
# [4] = target: T2, 5-hydroxytryptamine receptor 3A (Rattus norvegicus, UniProt P35563)
# T2 sequence (P35563 whole entry): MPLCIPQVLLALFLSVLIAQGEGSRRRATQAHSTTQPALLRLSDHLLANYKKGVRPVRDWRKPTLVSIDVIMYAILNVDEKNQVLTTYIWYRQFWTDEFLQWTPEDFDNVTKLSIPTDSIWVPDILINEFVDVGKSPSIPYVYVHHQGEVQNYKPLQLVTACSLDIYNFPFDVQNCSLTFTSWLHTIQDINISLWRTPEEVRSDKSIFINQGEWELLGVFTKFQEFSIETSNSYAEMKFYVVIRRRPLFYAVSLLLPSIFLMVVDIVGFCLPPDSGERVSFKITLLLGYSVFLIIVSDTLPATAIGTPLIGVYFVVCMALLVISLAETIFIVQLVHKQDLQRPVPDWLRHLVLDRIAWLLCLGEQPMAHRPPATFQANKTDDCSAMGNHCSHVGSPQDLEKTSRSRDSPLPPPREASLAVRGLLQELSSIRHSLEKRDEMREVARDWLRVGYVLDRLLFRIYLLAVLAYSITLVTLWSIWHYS
# [5] = target: Protein kinase C alpha type (Homo sapiens, UniProt P17252)
# [6] = target: Prostaglandin E2 receptor EP4 subtype (Homo sapiens, UniProt P35408)
# Prostaglandin E2 receptor EP4 subtype, sequence (P35408 whole entry): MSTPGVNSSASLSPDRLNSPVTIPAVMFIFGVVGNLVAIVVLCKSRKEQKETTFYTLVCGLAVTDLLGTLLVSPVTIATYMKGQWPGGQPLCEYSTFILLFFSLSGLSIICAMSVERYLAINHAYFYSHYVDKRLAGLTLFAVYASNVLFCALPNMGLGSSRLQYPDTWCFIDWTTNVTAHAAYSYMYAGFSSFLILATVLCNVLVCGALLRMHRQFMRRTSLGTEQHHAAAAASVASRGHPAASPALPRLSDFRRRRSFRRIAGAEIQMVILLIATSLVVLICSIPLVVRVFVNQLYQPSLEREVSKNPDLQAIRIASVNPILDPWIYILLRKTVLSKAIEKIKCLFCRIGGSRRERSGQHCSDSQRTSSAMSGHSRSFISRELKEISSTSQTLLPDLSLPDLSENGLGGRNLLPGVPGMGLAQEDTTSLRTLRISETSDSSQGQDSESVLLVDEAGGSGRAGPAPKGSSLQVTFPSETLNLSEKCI
# Histamine H3 receptor, sequence (Q9JI35 whole entry): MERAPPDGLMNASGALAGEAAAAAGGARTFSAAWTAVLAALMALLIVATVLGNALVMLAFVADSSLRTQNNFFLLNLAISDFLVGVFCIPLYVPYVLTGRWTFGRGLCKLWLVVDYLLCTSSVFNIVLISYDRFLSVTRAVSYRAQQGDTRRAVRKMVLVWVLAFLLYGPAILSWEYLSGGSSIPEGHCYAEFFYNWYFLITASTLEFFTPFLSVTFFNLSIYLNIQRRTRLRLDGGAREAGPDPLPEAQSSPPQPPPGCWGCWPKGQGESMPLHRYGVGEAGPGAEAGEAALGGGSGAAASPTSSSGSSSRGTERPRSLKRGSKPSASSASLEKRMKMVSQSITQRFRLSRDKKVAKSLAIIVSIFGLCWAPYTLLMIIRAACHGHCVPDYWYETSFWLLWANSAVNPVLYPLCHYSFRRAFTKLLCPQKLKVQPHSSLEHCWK
# Gamma-aminobutyric acid type B receptor subunit 1, sequence (Q9Z0U4 whole entry): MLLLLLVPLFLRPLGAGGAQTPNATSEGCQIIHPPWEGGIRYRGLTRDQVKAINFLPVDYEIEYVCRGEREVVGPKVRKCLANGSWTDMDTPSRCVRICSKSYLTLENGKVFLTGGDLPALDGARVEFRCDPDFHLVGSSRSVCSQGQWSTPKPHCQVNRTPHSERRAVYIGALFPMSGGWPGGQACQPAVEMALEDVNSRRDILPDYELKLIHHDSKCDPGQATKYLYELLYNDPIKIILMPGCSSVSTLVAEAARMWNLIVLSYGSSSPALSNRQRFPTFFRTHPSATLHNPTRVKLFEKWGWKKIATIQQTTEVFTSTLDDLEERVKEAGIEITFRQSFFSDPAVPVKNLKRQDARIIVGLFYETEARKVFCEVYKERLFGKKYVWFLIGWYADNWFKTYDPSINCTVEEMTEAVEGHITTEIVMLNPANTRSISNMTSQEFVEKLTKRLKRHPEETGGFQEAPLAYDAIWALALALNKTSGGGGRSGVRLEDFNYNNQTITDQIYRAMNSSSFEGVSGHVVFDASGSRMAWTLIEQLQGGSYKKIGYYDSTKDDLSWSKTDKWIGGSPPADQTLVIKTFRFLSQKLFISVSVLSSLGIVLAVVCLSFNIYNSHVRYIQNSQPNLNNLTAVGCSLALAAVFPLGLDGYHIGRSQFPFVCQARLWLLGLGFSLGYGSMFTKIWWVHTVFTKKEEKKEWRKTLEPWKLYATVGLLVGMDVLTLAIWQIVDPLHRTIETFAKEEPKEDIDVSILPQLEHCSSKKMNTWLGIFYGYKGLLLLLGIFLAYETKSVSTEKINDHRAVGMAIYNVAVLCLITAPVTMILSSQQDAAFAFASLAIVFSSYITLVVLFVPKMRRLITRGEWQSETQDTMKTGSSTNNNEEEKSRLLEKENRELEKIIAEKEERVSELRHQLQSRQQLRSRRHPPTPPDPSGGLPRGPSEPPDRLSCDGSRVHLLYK
# Histamine H4 receptor, sequence (Q9H3N8 whole entry): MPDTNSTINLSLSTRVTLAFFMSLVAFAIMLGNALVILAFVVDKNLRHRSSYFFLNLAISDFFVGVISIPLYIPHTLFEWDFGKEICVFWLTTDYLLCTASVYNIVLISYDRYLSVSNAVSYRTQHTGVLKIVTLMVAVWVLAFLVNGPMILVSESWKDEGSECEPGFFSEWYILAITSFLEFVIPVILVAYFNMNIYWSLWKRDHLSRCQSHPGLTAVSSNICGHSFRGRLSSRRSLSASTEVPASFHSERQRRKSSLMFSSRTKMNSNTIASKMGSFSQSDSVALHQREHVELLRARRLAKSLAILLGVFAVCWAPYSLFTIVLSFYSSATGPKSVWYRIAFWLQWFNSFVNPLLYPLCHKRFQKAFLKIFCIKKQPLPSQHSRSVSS
smiles,measurement,setting,value
"O=C1CCc2ccc(OCCCCN3CCN(c4cccc(Cl)c4Cl)CC3)cc2N1 [7-{4-[4-(2,3-dichlorophenyl)piperazin-1-yl]butoxy}-3,4-dihydroquinolin-2(1H)-one]",Ki,[1],> 10 µM
same,Ki,[2],8 µM
same,Ki,[3],> 10 µM
same,Ki,Histamine H4 receptor,> 10 µM
same,Ki,Histamine H3 receptor,0.224 µM
same,Ki,[4],0.63 µM
same,Ki,[5],> 10 µM
same,Ki,[6],> 10 µM
